Measurements published in paper PMC7053747 (PLoS ONE, 2020).
Where two headings read alike, the source gives them in different places.

Experiments:
human mu opioid receptor [1] = conditions: cited from earlier work
serotonin 5HT1A receptor = molecular target: T1, serotonin 5HT1A receptor (Homo sapiens, UniProt P08908); experiment: biochemical; assay type: binding
T1 sequence (P08908 1-422): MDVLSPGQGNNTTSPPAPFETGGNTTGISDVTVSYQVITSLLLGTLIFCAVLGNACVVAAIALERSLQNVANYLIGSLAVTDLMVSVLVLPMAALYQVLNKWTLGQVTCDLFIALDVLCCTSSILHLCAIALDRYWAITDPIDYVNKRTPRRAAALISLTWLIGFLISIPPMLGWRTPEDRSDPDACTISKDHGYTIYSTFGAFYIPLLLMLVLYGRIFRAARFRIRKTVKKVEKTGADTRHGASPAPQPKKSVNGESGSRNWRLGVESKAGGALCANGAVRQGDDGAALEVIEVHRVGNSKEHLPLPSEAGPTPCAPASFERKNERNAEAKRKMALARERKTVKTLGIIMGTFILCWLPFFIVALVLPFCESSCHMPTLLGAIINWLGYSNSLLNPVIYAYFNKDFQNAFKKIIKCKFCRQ

[2] = molecular target: T2, adrenergic alpha2B receptor (Homo sapiens, UniProt P18089); experiment: biochemical; assay type: binding
T2 construct: host or cells: transient HEKT cells
T2 sequence (P18089 1-450): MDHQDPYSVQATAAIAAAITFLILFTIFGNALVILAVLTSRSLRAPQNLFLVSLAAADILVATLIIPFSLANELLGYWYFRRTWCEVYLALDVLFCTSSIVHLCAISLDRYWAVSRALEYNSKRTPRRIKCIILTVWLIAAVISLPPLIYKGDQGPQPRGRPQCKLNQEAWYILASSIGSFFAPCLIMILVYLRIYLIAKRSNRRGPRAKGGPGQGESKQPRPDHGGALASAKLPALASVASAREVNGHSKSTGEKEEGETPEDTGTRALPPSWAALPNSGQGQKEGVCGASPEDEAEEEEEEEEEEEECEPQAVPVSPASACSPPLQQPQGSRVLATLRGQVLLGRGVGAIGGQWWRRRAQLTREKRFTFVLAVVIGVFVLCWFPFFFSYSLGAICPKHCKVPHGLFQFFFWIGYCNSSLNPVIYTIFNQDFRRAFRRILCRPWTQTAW

[3] = system: rodent mu opioid receptors; conditions: cited from earlier work
serotonin 5HT2A receptor = molecular target: T3, serotonin 5HT2A receptor (Homo sapiens, UniProt P28223); experiment: biochemical; assay type: binding
T3 construct: host or cells: transient HEKT cells (ATCC CRL-11268)
T3 sequence (P28223 whole entry): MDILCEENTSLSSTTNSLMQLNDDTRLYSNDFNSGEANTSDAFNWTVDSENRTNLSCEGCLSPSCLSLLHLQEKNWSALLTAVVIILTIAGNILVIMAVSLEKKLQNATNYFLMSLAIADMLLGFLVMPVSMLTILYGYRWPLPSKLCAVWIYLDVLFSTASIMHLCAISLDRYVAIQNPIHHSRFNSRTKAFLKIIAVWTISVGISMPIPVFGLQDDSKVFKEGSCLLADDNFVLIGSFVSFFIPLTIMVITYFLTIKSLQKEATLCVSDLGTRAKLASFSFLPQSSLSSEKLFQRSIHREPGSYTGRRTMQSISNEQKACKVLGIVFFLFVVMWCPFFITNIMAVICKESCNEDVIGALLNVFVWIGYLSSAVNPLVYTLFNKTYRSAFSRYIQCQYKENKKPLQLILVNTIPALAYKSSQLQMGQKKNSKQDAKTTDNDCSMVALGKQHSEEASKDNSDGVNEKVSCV

delta opioid receptor = delta opioid receptor (Homo sapiens, UniProt P41143); experiment: biochemical; assay type: binding
Chain of delta opioid receptor (P41143 whole entry): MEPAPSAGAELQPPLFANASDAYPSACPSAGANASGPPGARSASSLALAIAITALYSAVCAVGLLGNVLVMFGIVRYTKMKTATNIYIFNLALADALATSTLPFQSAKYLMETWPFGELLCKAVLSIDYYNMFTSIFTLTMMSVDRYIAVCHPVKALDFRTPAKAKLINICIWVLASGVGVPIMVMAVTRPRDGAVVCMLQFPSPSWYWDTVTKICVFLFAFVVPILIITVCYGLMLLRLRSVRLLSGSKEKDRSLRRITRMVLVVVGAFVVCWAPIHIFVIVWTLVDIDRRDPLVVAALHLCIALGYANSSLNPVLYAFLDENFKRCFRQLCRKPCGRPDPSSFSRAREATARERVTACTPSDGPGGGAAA

kappa opioid receptor = kappa opioid receptor (Homo sapiens, UniProt P41145); experiment: biochemical; assay type: binding
Chain of kappa opioid receptor (P41145 whole entry): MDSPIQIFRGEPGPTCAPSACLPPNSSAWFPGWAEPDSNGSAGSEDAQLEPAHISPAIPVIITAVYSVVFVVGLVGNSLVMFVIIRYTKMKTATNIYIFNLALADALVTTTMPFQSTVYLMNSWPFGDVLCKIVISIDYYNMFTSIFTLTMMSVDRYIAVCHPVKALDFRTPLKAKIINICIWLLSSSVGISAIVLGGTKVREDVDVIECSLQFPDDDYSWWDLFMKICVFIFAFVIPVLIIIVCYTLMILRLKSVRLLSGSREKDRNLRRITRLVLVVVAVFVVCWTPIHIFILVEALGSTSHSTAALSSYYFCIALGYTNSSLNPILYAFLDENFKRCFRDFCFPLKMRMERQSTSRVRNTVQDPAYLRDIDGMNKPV

[4] = molecular target: T4, adrenergic alpha2A receptor (Homo sapiens, UniProt P08913); experiment: biochemical; assay type: binding
T4 sequence (P08913 1-465): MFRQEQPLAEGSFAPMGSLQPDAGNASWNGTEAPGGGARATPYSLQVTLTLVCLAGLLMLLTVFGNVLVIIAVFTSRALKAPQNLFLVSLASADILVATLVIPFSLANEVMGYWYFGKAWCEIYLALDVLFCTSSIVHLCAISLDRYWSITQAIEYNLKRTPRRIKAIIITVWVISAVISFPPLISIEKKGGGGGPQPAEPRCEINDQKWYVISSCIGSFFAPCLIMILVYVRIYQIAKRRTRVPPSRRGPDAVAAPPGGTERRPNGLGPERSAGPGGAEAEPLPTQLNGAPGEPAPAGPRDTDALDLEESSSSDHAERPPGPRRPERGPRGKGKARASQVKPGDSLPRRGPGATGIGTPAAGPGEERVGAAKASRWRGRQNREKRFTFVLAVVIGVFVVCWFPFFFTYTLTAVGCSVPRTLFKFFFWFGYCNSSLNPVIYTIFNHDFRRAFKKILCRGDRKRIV

[5] = molecular target: T5, adrenergic alpha2C receptor (Homo sapiens, UniProt P18825); experiment: biochemical; assay type: binding
T5 sequence (P18825 1-462): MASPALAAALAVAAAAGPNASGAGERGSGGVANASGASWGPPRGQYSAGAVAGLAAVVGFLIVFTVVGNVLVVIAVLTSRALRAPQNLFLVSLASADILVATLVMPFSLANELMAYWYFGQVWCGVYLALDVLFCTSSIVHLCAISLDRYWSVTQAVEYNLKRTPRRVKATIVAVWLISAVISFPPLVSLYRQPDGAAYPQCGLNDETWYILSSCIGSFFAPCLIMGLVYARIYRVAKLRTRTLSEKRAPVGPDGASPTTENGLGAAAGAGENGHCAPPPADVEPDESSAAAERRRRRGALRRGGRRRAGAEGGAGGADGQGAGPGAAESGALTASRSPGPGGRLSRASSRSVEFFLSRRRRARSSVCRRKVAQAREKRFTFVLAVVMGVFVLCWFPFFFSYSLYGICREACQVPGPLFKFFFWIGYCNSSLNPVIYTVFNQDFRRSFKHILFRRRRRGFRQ

mu opioid receptor [6] = conditions: cited from earlier work
mu opioid receptor [7] = molecular target: mu opioid receptor (Homo sapiens, UniProt P35372); experiment: biochemical; assay type: binding
Chain of mu opioid receptor (Homo sapiens, UniProt P35372) (P35372 whole entry): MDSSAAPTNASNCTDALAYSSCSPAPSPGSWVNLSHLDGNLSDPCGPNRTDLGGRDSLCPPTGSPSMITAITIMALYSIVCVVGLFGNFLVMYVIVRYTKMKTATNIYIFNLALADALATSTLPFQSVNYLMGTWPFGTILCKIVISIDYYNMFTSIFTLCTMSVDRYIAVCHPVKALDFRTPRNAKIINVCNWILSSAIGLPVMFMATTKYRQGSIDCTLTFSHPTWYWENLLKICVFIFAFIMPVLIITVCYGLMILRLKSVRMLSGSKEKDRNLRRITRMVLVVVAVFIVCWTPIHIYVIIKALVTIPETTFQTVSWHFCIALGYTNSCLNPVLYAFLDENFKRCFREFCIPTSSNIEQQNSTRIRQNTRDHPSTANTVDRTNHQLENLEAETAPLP

mouse opioid receptor = conditions: read-out: binding affinity; cited from earlier work
[8] = molecular target: rodent mu opioid receptor; conditions: read-out: binding affinity; cited from earlier work
[9] = molecular target: human delta opioid receptor; conditions: read-out: binding affinity; cited from earlier work
human mu opioid receptor [10] = conditions: read-out: binding affinity; cited from earlier work
[11] = molecular target: rodent delta opioid receptor; conditions: read-out: binding affinity; cited from earlier work
[12] = molecular target: rodent kappa opioid receptor; conditions: read-out: binding affinity; cited from earlier work
[13] = molecular target: human kappa opioid receptor; conditions: read-out: binding affinity; cited from earlier work

Compound: Mitragynine [Compound 1]
- functional activity (BRET) (human mu opioid receptor [1]): partial agonist
- Ki (serotonin 5HT1A receptor; read-out: Ki): 5.8 µM
- Ki ([2]; read-out: Ki): 4.9 µM
- functional activity (BRET) [3]: competitive antagonist
- Ki (serotonin 5HT2A receptor; read-out: Ki): 7.3 µM
- Ki (delta opioid receptor; read-out: Ki): 6.5 µM
- Ki (kappa opioid receptor; read-out: Ki): 1.3 µM
- Ki ([4]; read-out: Ki): 2.3 µM
- Ki ([5]; read-out: Ki): 3.5 µM

Compound: CC[C@H]1CN2CC[C@@]3(C(=O)Nc4ccccc43)[C@@H]2C[C@@H]1/C(=C\OC)C(=O)OC [Compound 16, Isorhynchophylline]
- Ki (serotonin 5HT1A receptor): > 10 µM
- Ki [2]: > 10 µM
- Ki (serotonin 5HT2A receptor): > 10 µM
- Ki (delta opioid receptor): 6.4 µM
- Ki (kappa opioid receptor): > 10 µM
- Ki [4]: 4.8 µM
- Ki [5]: > 10 µM

Compound: CCOC(=O)C1(c2ccccc2)CCN(CCC(C#N)(c2ccccc2)c2ccccc2)CC1 [diphenoxylate]
- Ki (mu opioid receptor [6]): 0.0124 µM

Compound: COC(=O)C1=CO[C@@H](C)C2CN3CCc4c([nH]c5ccccc45)[C@@H]3C[C@H]12 (some centres unmarked) [Compound 11, Ajmalicine]
- Ki (serotonin 5HT1A receptor): 0.42 µM
- Ki (mu opioid receptor [7]): 8.96 µM
- Ki (serotonin 5HT2A receptor): > 10 µM
- Ki (delta opioid receptor): > 10 µM
- Ki (kappa opioid receptor): > 10 µM
- Ki [4]: 0.045 µM
- Ki [5]: 0.065 µM

Compound: CC[C@H]1CN2CCc3c([nH]c4cccc(OC)c34)[C@@H]2C[C@@H]1/C(=C\OC)C(=O)OC [Compound 2, Speciogynine]
- Ki (serotonin 5HT1A receptor; read-out: Ki): 0.54 µM
- Ki (mouse opioid receptor): < 10 µM
- Ki ([2]; read-out: Ki): 2.6 µM
- Ki (serotonin 5HT2A receptor; read-out: Ki): 2.9 µM
- Ki (delta opioid receptor; read-out: Ki): > 10 µM
- Ki (kappa opioid receptor; read-out: Ki): 3.6 µM
- Ki ([4]; read-out: Ki): 0.36 µM
- Ki ([5]; read-out: Ki): 0.68 µM

Compound: CC[C@@H]1CN2CC[C@]3(C(=O)Nc4ccccc43)[C@@H]2C[C@@H]1/C(=C\OC)C(=O)OC [Compound 14, Corynoxine B]
- Ki (serotonin 5HT1A receptor): > 10 µM
- Ki [2]: > 10 µM
- Ki (mu opioid receptor [7]): 1.6 µM
- Ki (serotonin 5HT2A receptor): > 10 µM
- Ki (delta opioid receptor): 7.6 µM
- Ki (kappa opioid receptor): > 10 µM
- Ki [4]: > 10 µM
- Ki [5]: > 10 µM

Compound: C=C[C@H]1CN2CCc3c([nH]c4cccc(OC)c34)[C@@H]2C[C@@H]1/C(=C\OC)C(=O)OC [Compound 5, Paynantheine]
- functional activity (BRET) (human mu opioid receptor [1]): antagonist
- Ki [8]: 0.67 ± 0.08 µM
- functional activity (BRET) [3]: no agonist or antagonist activity
- Ki [9]: > 10 µM
- Ki (human mu opioid receptor [10]): 0.41 ± 0.2 µM
- Ki [11]: 4.3 ± 0.7 µM
- Ki [12]: 0.89 ± 0.3 µM
- Ki [13]: 2.6 ± 0.4 µM

Compound: C=C[C@H]1CN2CC[C@@]3(C(=O)Nc4ccccc43)[C@@H]2C[C@@H]1/C(=C\OC)C(=O)OC [Compound 21, Isocorynoxeine]
- Ki (serotonin 5HT1A receptor): > 10 µM
- Ki [2]: > 10 µM
- Ki (mu opioid receptor [7]): > 10 µM
- Ki (serotonin 5HT2A receptor): > 10 µM
- Ki (delta opioid receptor): > 10 µM
- Ki (kappa opioid receptor): > 10 µM
- Ki [4]: > 10 µM
- Ki [5]: > 10 µM

Compound: COC(=O)C1=CO[C@@H](C)[C@@H]2CN3CCc4c([nH]c5ccccc45)[C@@H]3C[C@H]12 [Compound 12, Tetrahydroalstonine]
- Ki (serotonin 5HT1A receptor): 0.38 µM
- Ki [2]: 0.04 µM
- Ki (mu opioid receptor [7]): > 10 µM
- Ki (serotonin 5HT2A receptor): 2.6 µM
- Ki (delta opioid receptor): > 10 µM
- Ki (kappa opioid receptor): > 10 µM
- Ki [4]: 0.018 µM
- Ki [5]: 0.053 µM

Compound: CC[C@@H]1CN2CC[C@@]3(O)C(=Nc4cccc(OC)c43)[C@@H]2C[C@@H]1/C(=C\OC)C(=O)OC [Compound 7, 7-Hydroxymitragynine]
- Ki (serotonin 5HT1A receptor; read-out: Ki): > 10 µM
- Ki ([2]; read-out: Ki): > 10 µM
- Ki (serotonin 5HT2A receptor; read-out: Ki): > 10 µM
- Ki (delta opioid receptor; read-out: Ki): 0.47 µM
- Ki (kappa opioid receptor; read-out: Ki): 0.32 µM
- Ki ([4]; read-out: Ki): > 10 µM
- Ki ([5]; read-out: Ki): > 10 µM

Compound: C=C[C@H]1CN2CC[C@]3(C(=O)Nc4ccccc43)[C@@H]2C[C@@H]1/C(=C\OC)C(=O)OC [Compound 20, Corynoxeine]
- Ki (serotonin 5HT1A receptor): > 10 µM
- Ki [2]: 8.4 µM
- Ki (mu opioid receptor [7]): > 10 µM
- Ki (serotonin 5HT2A receptor): > 10 µM
- Ki (delta opioid receptor): > 10 µM
- Ki (kappa opioid receptor): > 10 µM
- Ki [4]: > 10 µM
- Ki [5]: > 10 µM

Compound: CCC(=O)O[C@](Cc1ccccc1)(c1ccccc1)[C@H](C)CN(C)C [propoxyphene]
- Ki (mu opioid receptor [6]): 0.12 µM
